Assay results taken from PubChem BioAssay (NCI).
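How tested: cells in 96-well plates exposed to compound for 48 hours at five concentrations. TGI denotes the concentration required for complete inhibition of growth.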

Columns and labels:
Assay in all cases: NCI-60 cell line screen, 48 h
CAKI-1 renal = test system: CAKI-1 renal
COLO 205 colon = test system: COLO 205 colon
DU-145 prostate = test system: DU-145 prostate
HCT-116 colon = test system: HCT-116 colon
HOP-62 NSCLC = test system: HOP-62 NSCLC
HS 578T breast = test system: HS 578T breast
HT29 colon = test system: HT29 colon
IGROV1 ovarian = test system: IGROV1 ovarian
MALME-3M melanoma = test system: MALME-3M melanoma
NCI-H23 lung = test system: NCI-H23 lung
OVCAR-3 ovarian = test system: OVCAR-3 ovarian
OVCAR-4 ovarian = test system: OVCAR-4 ovarian
RPMI-8226 leukemia = test system: RPMI-8226 leukemia
RXF 393 renal = test system: RXF 393 renal
SK-MEL-28 melanoma = test system: SK-MEL-28 melanoma
SK-OV-3 ovarian = test system: SK-OV-3 ovarian
SN12C renal = test system: SN12C renal
SR leukemia = test system: SR leukemia
UACC-257 melanoma = test system: UACC-257 melanoma
UO-31 renal = test system: UO-31 renal

Measured: TGI

Cc1cc(NS(=O)(=O)c2ccc(Nc3c4ccccc4nc4ccc(C(=O)Nc5ccc(S(=O)(=O)N=C(N)N)cc5)cc34)cc2)no1
> 100 µM: all assays above

C=C(Br)CN(CC(=C)Br)C(C)=O
> 100 µM: all assays above

NC(N)=NC(N)=Nc1c(F)c(F)c(F)c(F)c1F
> 100 µM: all assays above
